The target of this test is T1, human FFAR1 (GPR40) (Homo sapiens, UniProt O14842).
T1 construct: Flag; expressed in transfected cells; host or cells: HEK293T
The test is described as follows: NFAT-RE-based reporter gene activity assay (Dual-Glo luciferase) for GPR40 agonistic activity in co-transfected HEK293T cells. The test is classed as cell-based. Particulars: 4-hour treatment; for Efficacy (%): class symbols. In outline:
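HEK293T cells co-transfected with human FFAR1, NFAT-RE firefly luciferase and TK-Renilla plasmids; 24 h later treated 4 h with 10 half-log compound dilutions from 1 µM. Firefly/Renilla ratio normalised to DMSO; EC50 from four-parameter fit.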
For orientation: Reporter assays use an easily measured gene product as a stand-in for the process of interest.

T1 sequence (O14842 whole entry): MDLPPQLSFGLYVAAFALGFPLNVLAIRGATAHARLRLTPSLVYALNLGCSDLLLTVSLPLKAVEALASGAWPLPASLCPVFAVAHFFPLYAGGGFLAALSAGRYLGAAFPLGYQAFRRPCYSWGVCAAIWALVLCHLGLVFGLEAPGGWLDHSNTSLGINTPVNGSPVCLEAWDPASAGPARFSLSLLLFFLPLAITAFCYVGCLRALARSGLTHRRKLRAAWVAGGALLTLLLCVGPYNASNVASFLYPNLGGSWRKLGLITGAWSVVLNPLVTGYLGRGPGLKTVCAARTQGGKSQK

In general, EC50 refers to the concentration at which the effect is half-maximal. A higher EC50 goes with a need for much substance. Turning to `CC(C)(C)c1ccc(-c2c(C3CCN(c4ccc5c(c4)OCO5)CC3)oc3cc(C(CC(=O)O)C4CC4)ccc23)cc1` (stereo not drawn) [Compound 212], the EC50 lay in the range of 100 to 500 nM and the “Efficacy (%)” value is on record as “†† (150 ≥ Efficacy (%) > 100)”.
Turning to `CC(C)(C)c1ccc(-c2c(C3CCN(c4ccc5c(c4)OCO5)CC3)oc3cc([C@@H](CC(=O)O)C4CC4)ccc23)cc1` [Compound 213], the EC50 is 10 to 100 nM and the “Efficacy (%)” value is “†† (150 ≥ Efficacy (%) > 100)”.
Turning to `CC(C)(C)c1ccc(-c2c(C3CCN(c4ccc5ncoc5c4)CC3)oc3cc(C(CC(=O)O)C4CC4)ccc23)cc1` (stereo not drawn) [Compound 214], the EC50 lay in the range of 100 to 500 nM and the “Efficacy (%)” value was “† (100 ≥ Efficacy (%) > 50)”.
Consider `CC(C)(C)c1ccc(-c2c(C3CCN(c4ccc5c(c4)OCCO5)CC3)oc3cc(C(CC(=O)O)C4CC4)ccc23)cc1` (stereo not drawn) [Compound 215], for which the 50% effective concentration (EC50) fell in the range of 100 to 500 nM and the “Efficacy (%)” value is recorded as “†† (150 ≥ Efficacy (%) > 100)”.
For `COc1ccc(F)c(N2CCC(c3oc4cc([C@H](C5CC5)C(C)C(=O)O)ccc4c3-c3cccc(C(C)(C)C)c3)CC2)c1` (stereo partly drawn) [Compound 217], in that order: 10 to 100 nM and “†† (150 ≥ Efficacy (%) > 100)”.
Consider `COc1ccc(F)c(N2CCC(c3oc4cc([C@H](C5CC5)C(C)C(=O)O)ccc4c3-c3ccc(C(C)(C)C)cc3)CC2)c1` (stereo partly drawn) [Compound 218], for which the half-maximal effective concentration (EC50) fell in the range of 100 to 500 nM and the “Efficacy (%)” value is given as “††† (Efficacy (%) > 150)”.
Regarding `COc1ccc(F)c(N2CCC(c3oc4cc([C@H](C5CC5)C(F)C(=O)O)ccc4c3-c3cccc(C(C)(C)C)c3)CC2)c1` (stereo partly drawn) [Compound 219], the 50% effective concentration (EC50) lay within 10 to 100 nM and the “Efficacy (%)” value is on record as “† (100 ≥ Efficacy (%) > 50)”.
Regarding `COc1ccc(F)c(N2CCC(c3oc4cc([C@H](C5CC5)C(F)C(=O)O)ccc4c3-c3ccc(C(C)(C)C)cc3)CC2)c1` (stereo partly drawn) [Compound 220], the concentration for a half-maximal effect (EC50) was in the range of 100 to 500 nM and the “Efficacy (%)” value is listed as “††††”.
Regarding `COc1ccc(F)c(N2CCC(c3oc4cc(C(C5CC5)C(C)(C)C(=O)O)ccc4c3-c3ccc(C(C)(C)C)cc3)CC2)c1` (stereo not drawn) [Compound 222], the half-maximal effective concentration (EC50) fell in the range of 100 to 500 nM and the “Efficacy (%)” value is reported as “††† (Efficacy (%) > 150)”.
For `COc1ccc(F)c(N2CCC(c3oc4cc(C(CC(=O)O)C5CC5)c(F)cc4c3-c3ccc(C(C)(C)C)cc3)CC2)c1` (stereo not drawn) [Compound 223], in that order: 100 to 500 nM and “† (100 ≥ Efficacy (%) > 50)”.
For `COc1ccc(F)c(N2CCC(c3oc4cc(CCC(=O)O)ccc4c3-c3cccc(C(C)(C)C)c3)CC2)c1` [Compound 231], the EC50 was 100 to 500 nM and the “Efficacy (%)” value is reported as “† (100 ≥ Efficacy (%) > 50)”.
As for `COc1ccc(F)c(N2CCC(c3oc4cc(C(C)CC(=O)O)ccc4c3-c3cccc(C(C)(C)C)c3)CC2)c1` (stereo not drawn) [Compound 232], the 50% effective concentration (EC50) lay within 100 to 500 nM and the “Efficacy (%)” value is given as “† (100 ≥ Efficacy (%) > 50)”.
Consider `CCC(CC(=O)O)c1ccc2c(-c3cccc(C(C)(C)C)c3)c(C3CCN(c4cc(OC)ccc4F)CC3)oc2c1` (stereo not drawn) [Compound 233], for which the EC50 is 100 to 500 nM and the “Efficacy (%)” value is recorded as “†† (150 ≥ Efficacy (%) > 100)”.
For `COc1cccc(N2CCC(c3oc4cc([C@@H](CC(=O)O)C5CC5)ccc4c3C(=O)Nc3ccccc3F)CC2)c1` [Compound 234], in that order: ≤ 10 nM and “†† (150 ≥ Efficacy (%) > 100)”.
For the compound `COc1cccc(N2CCC(c3oc4cc(C(CC(=O)O)C5CC5)ccc4c3C(=O)Nc3ccccc3C#N)CC2)c1` (stereo not drawn) [Compound 236], the EC50 fell in the range of 10 to 100 nM and the “Efficacy (%)” value was “††† (Efficacy (%) > 150)”.
Consider `COc1cccc(N2CCC(c3oc4cc(C(CC(=O)O)C5CC5)ccc4c3C(=O)Nc3ccccc3C(F)(F)F)CC2)c1` (stereo not drawn) [Compound 237], for which the EC50 lay in the range of 10 to 100 nM and the “Efficacy (%)” value was “†† (150 ≥ Efficacy (%) > 100)”.
As for `COc1cccc(N2CCC(c3oc4cc([C@@H](CC(=O)O)C5CC5)ccc4c3C(=O)Nc3ccccc3C(F)(F)F)CC2)c1` [Compound 238], the EC50 fell in the range of 10 to 100 nM and the “Efficacy (%)” value is listed as “††† (Efficacy (%) > 150)”.
As for `COc1cccc(N2CCC(c3oc4cc([C@@H](CC(=O)O)C5CC5)ccc4c3C(=O)Nc3ccccc3C)CC2)c1` [Compound 239], the EC50 lay within 10 to 100 nM and the “Efficacy (%)” value was “††† (Efficacy (%) > 150)”.
In the case of `COc1cccc(N2CCC(c3oc4cc([C@@H](CC(=O)O)C5CC5)ccc4c3C(=O)Nc3ccccc3OC(F)(F)F)CC2)c1` [Compound 240], the EC50 lay in the range of 100 to 500 nM and the “Efficacy (%)” value is “†† (150 ≥ Efficacy (%) > 100)”.
On to `COc1cccc(N2CCC(c3oc4cc([C@@H](CC(=O)O)C5CC5)ccc4c3C(=O)Nc3ccccc3-c3ccccc3)CC2)c1` [Compound 241], for which the EC50 fell in the range of 100 to 500 nM and the “Efficacy (%)” value is “†† (150 ≥ Efficacy (%) > 100)”.
As to `COc1cccc(N2CCC(c3oc4cc([C@@H](CC(=O)O)C5CC5)ccc4c3C(=O)Nc3cccc(C)c3)CC2)c1` [Compound 242], the concentration giving a half-maximal response (EC50) lay within 100 to 500 nM and the “Efficacy (%)” value was “†† (150 ≥ Efficacy (%) > 100)”.
Regarding `CCc1cccc(NC(=O)c2c(C3CCN(c4cccc(OC)c4)CC3)oc3cc(C(CC(=O)O)C4CC4)ccc23)c1` (stereo not drawn) [Compound 243], the EC50 was > 500 nM and the “Efficacy (%)” value is “†† (150 ≥ Efficacy (%) > 100)”.
For `COc1cccc(NC(=O)c2c(C3CCN(c4cccc(OC)c4)CC3)oc3cc(C(CC(=O)O)C4CC4)ccc23)c1` (stereo not drawn) [Compound 245], the 50% effective concentration (EC50) lay in the range of 100 to 500 nM and the “Efficacy (%)” value is listed as “†† (150 ≥ Efficacy (%) > 100)”.
Turning to `COc1cccc(N2CCC(c3oc4cc(C(CC(=O)O)C5CC5)ccc4c3C(=O)Nc3cccc(N(C)C)c3)CC2)c1` (stereo not drawn) [Compound 246], the half-maximal effective concentration (EC50) lay in the range of 100 to 500 nM and the “Efficacy (%)” value is recorded as “†† (150 ≥ Efficacy (%) > 100)”.
With `COc1cccc(N2CCC(c3oc4cc(C(CC(=O)O)C5CC5)ccc4c3C(=O)Nc3cccc(Br)c3)CC2)c1` (stereo not drawn) [Compound 247], the EC50 is 100 to 500 nM and the “Efficacy (%)” value is reported as “††† (Efficacy (%) > 150)”.
As for `COc1cccc(N2CCC(c3oc4cc(C(CC(=O)O)C5CC5)ccc4c3C(=O)Nc3cccc(Cl)c3)CC2)c1` (stereo not drawn) [Compound 248], the EC50 was 100 to 500 nM and the “Efficacy (%)” value was “†† (150 ≥ Efficacy (%) > 100)”.
For `COc1cccc(N2CCC(c3oc4cc(C(CC(=O)O)C5CC5)ccc4c3C(=O)Nc3cccc(C#N)c3)CC2)c1` (stereo not drawn) [Compound 249], the concentration giving a half-maximal response (EC50) is 100 to 500 nM and the “Efficacy (%)” value is “†† (150 ≥ Efficacy (%) > 100)”.
As to `COc1cccc(N2CCC(c3oc4cc(C(CC(=O)O)C5CC5)ccc4c3C(=O)Nc3cccc(C)c3F)CC2)c1` (stereo not drawn) [Compound 250], the EC50 lay in the range of 100 to 500 nM and the “Efficacy (%)” value was “†† (150 ≥ Efficacy (%) > 100)”.
With `COc1cccc(N2CCC(c3oc4cc(C(CC(=O)O)C5CC5)ccc4c3C(=O)Nc3ccc(C)cc3F)CC2)c1` (stereo not drawn) [Compound 251], the half-maximal effective concentration (EC50) fell in the range of 100 to 500 nM and the “Efficacy (%)” value is “†† (150 ≥ Efficacy (%) > 100)”.
As for `COc1cccc(N2CCC(c3oc4cc(C(CC(=O)O)C5CC5)ccc4c3C(=O)Nc3c(C)cccc3F)CC2)c1` (stereo not drawn) [Compound 252], the EC50 was in the range of 100 to 500 nM and the “Efficacy (%)” value was “†† (150 ≥ Efficacy (%) > 100)”.
Take `COc1cccc(N2CCC(c3oc4cc([C@@H](CC(=O)O)C5CC5)ccc4c3C(=O)Nc3cc(C)ccc3F)CC2)c1` [Compound 253]: the concentration for a half-maximal effect (EC50) was ≤ 10 nM and the “Efficacy (%)” value is “††† (Efficacy (%) > 150)”.
Consider `COc1cccc(N2CCC(c3oc4cc(C(CC(=O)O)C5CC5)ccc4c3C(=O)Nc3cccc(F)c3F)CC2)c1` (stereo not drawn) [Compound 254], for which the EC50 fell in the range of 100 to 500 nM and the “Efficacy (%)” value is “††† (Efficacy (%) > 150)”.
Take `COc1cccc(N2CCC(c3oc4cc(C(CC(=O)O)C5CC5)ccc4c3C(=O)Nc3ccc(F)cc3F)CC2)c1` (stereo not drawn) [Compound 255]: the half-maximal effective concentration (EC50) is 100 to 500 nM and the “Efficacy (%)” value is reported as “†† (150 ≥ Efficacy (%) > 100)”.
The corresponding values for `COc1cccc(N2CCC(c3oc4cc(C(CC(=O)O)C5CC5)ccc4c3C(=O)Nc3c(F)cccc3F)CC2)c1` (stereo not drawn) [Compound 256] are 100 to 500 nM and “††† (Efficacy (%) > 150)”.
Turning to `COc1cccc(N2CCC(c3oc4cc([C@@H](CC(=O)O)C5CC5)ccc4c3C(=O)Nc3cc(F)ccc3F)CC2)c1` [Compound 257], the EC50 was ≤ 10 nM and the “Efficacy (%)” value is given as “††† (Efficacy (%) > 150)”.
For `COc1cccc(N2CCC(c3oc4cc(C(CC(=O)O)C5CC5)ccc4c3C(=O)Nc3cccc(OC)c3F)CC2)c1` (stereo not drawn) [Compound 258], the EC50 lay within 100 to 500 nM and the “Efficacy (%)” value is “††† (Efficacy (%) > 150)”.
In the case of `COc1cccc(N2CCC(c3oc4cc(C(CC(=O)O)C5CC5)ccc4c3C(=O)Nc3c(F)cccc3OC)CC2)c1` (stereo not drawn) [Compound 259], the EC50 is > 500 nM and the “Efficacy (%)” value is listed as “†† (150 ≥ Efficacy (%) > 100)”.
The corresponding values for `COc1cccc(N2CCC(c3oc4cc([C@@H](CC(=O)O)C5CC5)ccc4c3C(=O)Nc3cc(OC)ccc3F)CC2)c1` [Compound 260] are 10 to 100 nM and “††† (Efficacy (%) > 150)”.
Regarding `COc1cccc(N2CCC(c3oc4cc([C@@H](CC(=O)O)C5CC5)ccc4c3C(=O)Nc3cc(C(F)(F)F)ccc3F)CC2)c1` [Compound 261], the concentration for a half-maximal effect (EC50) was ≤ 10 nM and the “Efficacy (%)” value was “††† (Efficacy (%) > 150)”.
The corresponding values for `COc1cccc(N2CCC(c3oc4cc([C@@H](CC(=O)O)C5CC5)ccc4c3C(=O)Nc3cc(OC(F)(F)F)ccc3F)CC2)c1` [Compound 262] are < 10 nM and “†† (150 ≥ Efficacy (%) > 100)”.
With `COc1cccc(N2CCC(c3oc4cc(C(CC(=O)O)C5CC5)ccc4c3C(=O)Nc3c(F)cccc3C(F)(F)F)CC2)c1` (stereo not drawn) [Compound 263], the EC50 fell in the range of 100 to 500 nM and the “Efficacy (%)” value was “†† (150 ≥ Efficacy (%) > 100)”.
For `COc1cccc(N2CCC(c3oc4cc(C(CC(=O)O)C5CC5)ccc4c3C(=O)Nc3c(F)cccc3Br)CC2)c1` (stereo not drawn) [Compound 264], the EC50 lay in the range of 100 to 500 nM and the “Efficacy (%)” value was “†† (150 ≥ Efficacy (%) > 100)”.

Values taken from patent EP4682145A1, “BENZOHETEROCYCLIC COMPOUND, AND PREPARATION METHOD THEREFOR AND USE THEREOF” (Cascade Pharmaceuticals, Inc., priority 2023, dated 2024).
